The source of these data is US12503448B2, “Antibacterial and antiparasitic quinoxaline-2,3-diamine derivatives” (University College Cardiff Consultants Limited, priority 2019, dated 2025).

Converted amounts (≈) assume the structure as drawn. Read-outs that look alike come from different tables or passages of the source.

Series [1] is described as follows: Mouse pharmacokinetics, oral cassette dosing. The conditions noted are these: for AUC(0-t) / Cmax / MRT last / Tmax: male, C57/BL6, mouse, plasma, po, 2.5 mg/kg; for Tlast: oral, nominal dose 2.5 mg/kg, cassette. As for the experimental part: Non-compartmental mouse pharmacokinetics (Male C57/BL6 Mouse, Fasted; 3 mice per group) were determined after oral administration of a nominal dose of 2.5 mg/kg of these formulations in cassettes (5 compounds/group) according to the protocols employed by WuXi (https://www.wuxiapptec.com; the CRO that conducted these studies).

The test system of the next series is S. mansoni schistosomula. Kind of series: 72 hours schistosomula drug screen. It counts as cell-based, Schistosoma mansoni. The conditions noted are these: for Selectivity Index Schistosomula: HepG2 CC50 over schistosomula EC50; for EC50: Schistosoma mansoni. In outline:
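Newly transformed S. mansoni schistosomula were screened for 72 h in 384-well format. Phenotype and motility were scored, and a schistosomula average was derived.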

For the next series, the system named is Schistosoma mansoni. Kind of series: Anti-schistosomal in vivo efficacy screen (murine model of schistosomiasis). As to conditions: 100 mg/kg oral, two doses (day 1 and day 3), mice.
Series [2] relates to F. hepatica newly excysted juveniles (NEJs). Kind of series: Newly excysted juveniles (NEJs) drug screen. It counts as cell-based, Fasciola hepatica. Set-up: scale not given here. As to conditions: 10 μM, 72 h; higher score indicates lower worm activity. In outline: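 Italian-strain F. hepatica NEJs, 25 per well, exposed to compound at 10 μM (0.1% DMSO) for 72 h at 37 °C, 5% CO2. Each parasite scored for phenotype and motility; averaged over two replicates, higher score meaning lower worm activity.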

Series [3] can be described thus: Semi thermodynamic solubility. The conditions noted are these: thermodynamic from solid.
Series [4] in a line: Metabolic stability in mouse liver microsomes. The conditions noted are these: liver microsomes.
The nature of the next series: MTT assay on HepG2 cells. In kind it is cell-based. The conditions noted are these: human. As for the experimental part:
MTT Assay on HepG2 Cells Human Hepatocyte Carcinoma (HepG2) cells (85011430, Sigma Aldrich) were used to assess the overt toxicity of these anti-infective compounds. […] A negative control (1% v/v Triton X-100; X100, Sigma-Aldrich) was also included in each screen. After addition of compounds, each plate was then incubated for a further 20 hrs before application of MTT reagent (prepared as described in Nur-[…], Bari A, Ghabbour […], Hoffmann […] Nat Prod. 2017 Jun. 23; 80(6):1900-1908 for the assessment of compound cytotoxicity using the MTT assay. […] The plate was then further incubated for 4 hrs. After incubation, each plate was blotted dry under the laminar flow to remove the MTT treated culture media. A 100 μl DMSO: isopropanol (1:1) solution was then added to each well and the plate was then subsequently incubated for 10 minutes at 37° C. Following incubation, each plate was shaken again and then absorbance measured at 570 nm. The absorbance reading was corrected based on the average value of the wells used as blank (no cells). […] The data obtained in this manner is shown in Table 1 in the columns labelled “HepG2”. […] The selectivity indexes for schistosomula and adult worms are shown in the final two columns in Table 1.

Another series relates to H3K4 methylation. Kind of series: Histone extraction and detection of global H3K4 methylation in treated adult worms. As to conditions: sub-lethal concentration 0.0024 μM, male and female adult worms. In kind it is cell-based, Schistosoma mansoni.
The next series deals with S. mansoni adult worms. Put plainly: Adult worm drug screen (WHO scoring, WormassayGP2). In kind it is cell-based, Schistosoma mansoni. In outline:
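Adult worms perfused from MF-1 mice 7 weeks after infection with 180 cercariae. Motility after drug exposure scored on the WHO-TDR 0–4 microscopic scale (0 = no movement, 4 = normal), checked by image-based motion analysis. Deposited eggs counted.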

The nature of the next series: in vitro. As to conditions: plasma.
The mark [5] stands for this setting: average of phenotype and motility, read-out: EC50 Schistosomula average.
The mark [6] stands for this setting: schistosomula, 72 hour culture, read-out: EC50 Motility.
Setting [7] is: schistosomula, 72 hour culture, read-out: EC50 Phenotype.

Protocol for Schistosoma mansoni: Anti-Schistosomal in vivo Efficacy Screen
An anti-schistosomal efficacy trial of the compounds described herein was conducted on a murine model of Schistosomiasis using the following procedure. Schistosoma mansoni cercaria were prepared from infected Biomphalaria glabrata snails by inducing synchronous shedding upon exposure to light for 40 minutes (in artificial pond water). […] A maximum of 6 mice were housed in a cage for the duration of the 7-week infection.
At 6 wks post infection (Day 42 post infection), mice were dosed with anthelmintic chemicals using autoclaved gavage needles for oral delivery. The gavage needle was dipped into a concentrated solution of sucrose (approx. 1 g/ml) before dosing as a refinement measure to reduce stress-related reactions.
For oral dosing, the compounds (dry powder) were weighed and prepared in an appropriate excipient (e.g. 10% DMSO, 20% Kolliphor EL and 70% sterile water). […]
At the end of the treatment (on day 48 post-infection), mice were perfused after receiving an intra-peritoneal administration of non-recoverable dose of sodium pentobarbital (100 μl/10 g body weight) containing 100 U/ml heparin solution (in 1×PBS). […] After incubation in a humidified environment containing 5% CO2 at 37° C. for at least 1 h, the quantification of worm burden per each mouse of each treatment was performed. […]

Consider `O=[N+]([O-])c1ccc2nc(Nc3ccc(Cl)cc3)c(Nc3ccc(Cl)cc3)nc2c1` [Compound 4, N^2, N^3-bis(4-chlorophenyl)-6-nitroquinoxaline-2,3-diamine], for which, in [1], the AUC(0-t) came out at 436 ng·h/mL, the peak level (Cmax) was 90.4 ng/mL, the MRT last amounted to 4.25 h and the Tmax worked out at 3.33 h. In series [1], the Tlast turned out to be 8.00 h. In addition, in the series on S. mansoni schistosomula, the “Selectivity Index Schistosomula” value was 28. For the same compound, in the series with S. mansoni schistosomula (setting [5]), the EC50 amounted to 470 nM. The EC50 in the series with S. mansoni schistosomula (setting [6]) was found to be 530 nM. The EC50 in the series with S. mansoni schistosomula (setting [7]) came out at 400 nM. Moreover, in the series on Schistosoma mansoni, the “reduction in worm burden in vivo compared to the vehicle” value came to 35.5%. For the same compound, the “reduction in egg count in vivo compared to the vehicle” value in the series on Schistosoma mansoni (liver eggs) was 39.9%. Also, in series [2], the “Motility (M) Mean score” value came out at 4.71 and the “Phenotype (P) Mean score” value came out at 5.13. In series [3], the thermodynamic solubility was 12.7 µM (≈ 5.41 µg/mL). In [4], the half-life at 1 μM was 2.52 h and the microsomal CLint at 1 μM is 9.18 µL/min/mg.

As to `O=[N+]([O-])c1ccc2nc(Nc3cc(C(F)(F)F)ccc3F)c(Nc3cc(C(F)(F)F)ccc3F)nc2c1` [Compound 9, N^2, N^3-bis(2-fluoro-5-(trifluoromethyl)phenyl)-6-nitroquinoxaline-2,3-diamine], in series [1], the exposure AUC(0-t) came out at 337 ng·h/mL, the Cmax came out at 79.3 ng/mL, the MRT last turned out to be 4.22 h and the Tmax is 4 h. This compound yielded a Tlast in [1] of 8.00 h. In addition, the “Selectivity Index Schistosomula” value with S. mansoni schistosomula is 223. Further, the EC50 with S. mansoni schistosomula (setting [5]) stood at 480 nM. For the same compound, the EC50 in the series on S. mansoni schistosomula (setting [6]) is 470 nM. In addition, in the series with S. mansoni schistosomula (setting [7]), the EC50 is 480 nM. Besides, in [2], the “Motility (M) Mean score” value came out at 3.68 and the “Phenotype (P) Mean score” value worked out at 4.63. In addition, the CC50 at 24 h in the series “MTT assay on HepG2 cells” amounted to 106000 nM. For the same compound, the “global H3K4 methylation compared to the negative control (DMSO)” value with H3K4 methylation is on record as “significant % decrease”. In series [3], the thermodynamic solubility was determined as 6.95 µM (≈ 3.68 µg/mL). Moreover, the “Selectivity Index Adult” value with S. mansoni adult worms (HepG2 CC50 over adult worm EC50) is on record as 29464. Also, in the series on S. mansoni adult worms (Schistosoma mansoni, adult worms), the response was half-maximal at 3.6 nM (EC50). In series [4], the half-life at 1 μM stood at 1.45 h and the microsomal CLint at 1 μM is 16 µL/min/mg.

As to `CC(=O)CC(c1ccccc1)c1c(O)c2ccccc2oc1=O` (stereo not drawn) [Warfarin, reference compound], the thermodynamic solubility in series [3] is more than 100 µM. Further, the fraction unbound in the series “in vitro” came to 0.0727.

The term AUC(0-t) denotes exposure summed from dosing to a finite time, without extrapolation to infinity. For orientation: Cmax means the maximum level reached in the sampled fluid or tissue. The MRT last is a mean duration of stay, worked out from the concentration-time curve. The Tmax is the time at which the peak concentration occurs. What is called EC50 is the midpoint of the concentration-response curve. The solubility (thermodynamic) is the concentration in solution at equilibrium with solid. A word on the half-life: it is the time needed for the level to fall by half in the phase considered. Usually microsomal CLint stands for a measure of how fast metabolising enzymes remove a compound, apart from limits set by blood flow. In general, CC50 refers to the concentration giving 50% cytotoxicity. What is called fraction unbound is the share of the substance not bound to proteins or other matrix.
